Experimental data reported in patent US20090087845A1, “Genetic Markers Of True Low Birth Weight” (priority 2005, published 2009).

Test system: placental gene expression

CCO [alcohol]
Mean 5%, probe set 1385639_at (5% alcohol group, Mean Contr 4.981165): 4.504
Mean 5%, Inpp1 (1394340_at) (5% alcohol group, Mean Contr 5.05511): 4.704
Mean 5%, RT1-Aw2 (1379496_at) (5% alcohol group, Mean Contr 5.19844): 4.65
Mean 5%, Trp53rk_predicted (1379488_at) (5% alcohol group, Mean Contr 5.228085): 4.923
Mean 5%, Enpp5 (1388926_at) (5% alcohol group, Mean Contr 5.277582): 4.894
Mean 5%, Prdm2_mapped (1381229_at) (5% alcohol group, Mean Contr 5.346211): 4.872
Mean 5%, RGD1564011_predicted (1375191_at) (5% alcohol group, Mean Contr 5.471081): 5.008
Mean 5%, Centa2 (1369725_at) (5% alcohol group, Mean Contr 5.497342): 5.089
Mean 5%, Transcribed locus (1383789_at) (5% alcohol group, Mean Contr 5.574571): 5.342
Mean 5%, Transcribed locus (1392286_at) (5% alcohol group, Mean Contr 5.585624): 5.242
Mean 5%, Mcpt6 (1387334_at) (5% alcohol group, Mean Contr 5.601581): 5.206
Mean 5%, Ggps1 (1377866_a_at) (5% alcohol group, Mean Contr 5.646626): 5.273
Mean 5%, Transcribed locus (1389718_at) (5% alcohol group, Mean Contr 5.751838): 5.09
Mean 5%, Transcribed locus (1377021_at) (5% alcohol group, Mean Contr 5.80011): 5.149
Mean 5%, Cp (1368418_a_at) (5% alcohol group, Mean Contr 5.816824): 5.332
Mean 5%, LOC303515 (1383571_at) (5% alcohol group, Mean Contr 5.867879): 5.339
Mean 5%, Transcribed locus (1389111_at) (5% alcohol group, Mean Contr 5.875325): 5.42
Mean 5%, Transcribed locus (1393980_at) (5% alcohol group, Mean Contr 5.991591): 5.335
Mean 5%, Pcmtd2_predicted (1374454_at) (5% alcohol group, Mean Contr 6.083112): 5.464
Mean 5%, Plek (1390687_at) (5% alcohol group, Mean Contr 6.105485): 5.536
Mean 5%, Cdca7 (1374540_at) (5% alcohol group, Mean Contr 6.195992): 5.287
Mean 5%, Cul2_predicted (1378127_at) (5% alcohol group, Mean Contr 6.258107): 5.629
Mean 5%, Pex6 (1368264_at) (5% alcohol group, Mean Contr 6.259265): 5.664
Mean 5%, St3gal3 (1373607_at) (5% alcohol group, Mean Contr 6.298338): 5.956
Mean 5%, Kbtbd4_predicted (1374614_at) (5% alcohol group, Mean Contr 6.314496): 5.868
Mean 5%, Phyh (1393245_at) (5% alcohol group, Mean Contr 6.483711): 5.646
Mean 5%, LOC287533 (1373627_at) (5% alcohol group, Mean Contr 6.526312): 5.83
Mean 5%, Transcribed locus (1388465_at) (5% alcohol group, Mean Contr 6.549543): 6.133
Mean 5%, Mss4 (1376745_at) (5% alcohol group, Mean Contr 6.629539): 6.082
Mean 5%, Plag1 (1391714_at) (5% alcohol group, Mean Contr 6.670053): 5.859
Mean 5%, Sumf1_predicted (1389833_at) (5% alcohol group, Mean Contr 6.839621): 6.464
Mean 5%, Polr3e_predicted (1374415_at) (5% alcohol group, Mean Contr 6.849002): 6.356
Mean 5%, RGD1308959 (1399108_at) (5% alcohol group, Mean Contr 6.859582): 6.437
Mean 5%, Wig1 (1387021_at) (5% alcohol group, Mean Contr 6.895168): 6.437
Mean 5%, probe set 1379314_at (5% alcohol group, Mean Contr 6.970231): 6.195
Mean 5%, Ddx59 (1383635_at) (5% alcohol group, Mean Contr 6.981191): 6.627
Mean 5%, Rnd3 (1394077_at) (5% alcohol group, Mean Contr 7.018906): 6.516
Mean 5%, probe set 1393037_at (5% alcohol group, Mean Contr 7.020197): 6.711
Mean 5%, Slc39a4_predicted (1374366_at) (5% alcohol group, Mean Contr 7.252498): 6.553
Mean 5%, RGD1305243_predicted (1374076_at) (5% alcohol group, Mean Contr 7.300542): 6.98
Mean 5%, Transcribed locus (1393310_at) (5% alcohol group, Mean Contr 7.364799): 6.579
Mean 5%, Gusb (1367901_at) (5% alcohol group, Mean Contr 7.420203): 6.975
Mean 5%, probe set 1392953_at (5% alcohol group, Mean Contr 7.435411): 6.789
Mean 5%, Crsp9_predicted (1377263_at) (5% alcohol group, Mean Contr 7.471023): 6.737
Mean 5%, probe set 1389582_at (5% alcohol group, Mean Contr 7.588214): 6.742
Mean 5%, Transcribed locus (1393226_at) (5% alcohol group, Mean Contr 7.705027): 6.779
Mean 5%, RGD1565289_predicted (1375297_at) (5% alcohol group, Mean Contr 7.731478): 6.938
Mean 5%, Zfp207 (1394591_at) (5% alcohol group, Mean Contr 8.125942): 7.43
Mean 5%, Akr7a2 (1367843_at) (5% alcohol group, Mean Contr 8.276972): 7.547
Mean 5%, Tparl (1373392_at) (5% alcohol group, Mean Contr 8.308305): 8.164
Mean 5%, Mcts1 (1388660_at) (5% alcohol group, Mean Contr 8.623529): 8.191
Mean 5%, Hadhsc (1370237_at) (5% alcohol group, Mean Contr 8.793343): 8.481
Mean 5%, Asah1 (1374770_at) (5% alcohol group, Mean Contr 9.074708): 8.62
Mean 5%, Arts1 (1368356_a_at) (5% alcohol group, Mean Contr 9.55972): 9.182
Mean 5%, Ndufb5_predicted (1388304_at) (5% alcohol group, Mean Contr 10.12286): 9.747
Mean 5%, MGC72992 (1389325_at) (5% alcohol group, Mean Contr 10.24563): 9.919
Mean 5%, Vps35_mapped (1372806_at) (5% alcohol group, Mean Contr 10.46183): 10.13
Mean 10%, probe set 1385639_at (10% alcohol group, Mean Contr 4.981165): 4.259
Mean 10%, Inpp1 (1394340_at) (10% alcohol group, Mean Contr 5.05511): 4.269
Mean 10%, RT1-Aw2 (1379496_at) (10% alcohol group, Mean Contr 5.19844): 4.376
Mean 10%, Trp53rk_predicted (1379488_at) (10% alcohol group, Mean Contr 5.228085): 4.494
Mean 10%, Enpp5 (1388926_at) (10% alcohol group, Mean Contr 5.277582): 4.551
Mean 10%, Prdm2_mapped (1381229_at) (10% alcohol group, Mean Contr 5.346211): 4.661
Mean 10%, RGD1564011_predicted (1375191_at) (10% alcohol group, Mean Contr 5.471081): 4.639
Mean 10%, Centa2 (1369725_at) (10% alcohol group, Mean Contr 5.497342): 4.692
Mean 10%, Transcribed locus (1383789_at) (10% alcohol group, Mean Contr 5.574571): 4.986
Mean 10%, Transcribed locus (1392286_at) (10% alcohol group, Mean Contr 5.585624): 4.791
Mean 10%, Mcpt6 (1387334_at) (10% alcohol group, Mean Contr 5.601581): 4.849
Mean 10%, Ggps1 (1377866_a_at) (10% alcohol group, Mean Contr 5.646626): 4.808
Mean 10%, Transcribed locus (1389718_at) (10% alcohol group, Mean Contr 5.751838): 4.745
Mean 10%, Transcribed locus (1377021_at) (10% alcohol group, Mean Contr 5.80011): 4.752
Mean 10%, Cp (1368418_a_at) (10% alcohol group, Mean Contr 5.816824): 5.05
Mean 10%, LOC303515 (1383571_at) (10% alcohol group, Mean Contr 5.867879): 5.002
Mean 10%, Transcribed locus (1389111_at) (10% alcohol group, Mean Contr 5.875325): 4.794
Mean 10%, Transcribed locus (1393980_at) (10% alcohol group, Mean Contr 5.991591): 4.943
Mean 10%, Pcmtd2_predicted (1374454_at) (10% alcohol group, Mean Contr 6.083112): 4.612
Mean 10%, Plek (1390687_at) (10% alcohol group, Mean Contr 6.105485): 4.933
Mean 10%, Cdca7 (1374540_at) (10% alcohol group, Mean Contr 6.195992): 4.948
Mean 10%, Cul2_predicted (1378127_at) (10% alcohol group, Mean Contr 6.258107): 5.032
